Results taken from US20130245081A1, “Compositions and Methods for Treating Amyotrophic Lateral Sclerosis” (priority 2009, published 2013).
Where “and” joins values, the source holds several entries; their conditions need not be identical. Identical values can stand only once. Like-named read-outs stand apart in the source and are kept apart here.

How the values were obtained:
patients with ALS [1] = system: patients with ALS
healthy adult subjects = system: healthy adult subjects
Method: In both studies, safety was assessed by periodic measurement of vital signs, 12-lead ECGs, physical examinations, clinical laboratory parameters, and reports of adverse events. Baseline vital signs and changes from baseline were summarized with descriptive statistics by body position (supine or standing), dose level, and time point. Additionally, the number of subjects with substantial increases or decreases in blood pressure (>20 mmHg) and heart rate (>15 bpm) were tabulated by dose level and visit. The arithmetic mean of 3 readings of blood pressure and heart rate at each visit/position was used for the analysis. The shift from baseline for physical examination results was tabulated by body system, visit, and dose level. The overall ECG findings were summarized using a shift table comparing post-baseline visits to baseline. Laboratory parameters were summarized at each timepoint, including changes from baseline by dose level. In addition, abnormal values outside normal ranges were flagged. All safety data were summarized with descriptive statistics by dose group.
In the first study, subjects remained in the clinic for 72 hours after dosing, during which time they were monitored for safety and tolerability, and later returned to the clinic for a brief follow-up visit 7 days post-dose for clinical and laboratory assessments. In the second study, end-of-treatment evaluations were performed on Day 9, approximately 48 hours after the final dose, and subjects were discharged from the clinic for an outpatient visit on Day 10 and a follow-up visit on Day 14.

patients with ALS [2] = system: patients with ALS; remark: listed apart in the source
[3] = combined active treatment groups, Part 1

Q: Which “Zero Imputation Slope Estimate, Gross, % reduction” value (patients with ALS [1]; 300 mg vs 50 mg) does the source give for `CCCN[C@@H]1CCc2nc(N)sc2C1` [dexpramipexole, (6R)-2-amino-4,5,6,7-tetrahydro-6-(propylamino)benzothiazole] here?
A: 13.33%

Q: What about the “Zero Imputation Slope Estimate, Resp, % reduction” value (patients with ALS [1]; 300 mg vs 50 mg) of the same molecule?
A: 55.65%

Q: And the “reduction in decline of ALSFRS-R slope, zero imputation” value (patients with ALS [1]; 300 mg vs 50 mg)?
A: 42%

Q: And the “smaller decline in ALSFRS-R scores (repeated measures model)” value (patients with ALS [1]; 300 mg vs 50 mg, Week 28)?
A: 19.7%

Q: And the “McGill SIS, Mean (SE)” value (patients with ALS [1]; 300 mg, Endpoint of Part 2)?
A: 6.1 (0.35)

Q: And the “McGill SIS, Mean Δ (SE) from baseline” value (patients with ALS [1]; 300 mg, Endpoint of Part 2)?
A: −0.8 (0.30)

Q: And the “McGill SIS, Median Δ” value (patients with ALS [1]; 300 mg, Endpoint of Part 2)?
A: −1.0

Q: And the “Upright Vital Capacity, Mean (SE)” value (patients with ALS [1]; 300 mg, Endpoint of Part 2)?
A: 61.1 (3.94) % predicted

Q: What about the “Upright Vital Capacity, Mean Δ (SE) from baseline of Part 2” value (from here on “Upright Vital Capacity, Mean Δ (SE)”) (patients with ALS [1]; 300 mg, Endpoint of Part 2) of the same molecule?
A: −20.3 (2.88) % predicted

Q: And the “Upright Vital Capacity, Median Δ” value (patients with ALS [1]; 300 mg, Endpoint of Part 2)?
A: −14.3 % predicted

Q: What about the “McGill SIS, Mean (SE)” value (patients with ALS [1]; 300 mg, Week 8) of the same molecule?
A: 6.9 (0.32)

Q: What about the “McGill SIS, Median Δ” value (patients with ALS [1]; 300 mg, Week 8) of the same molecule?
A: 0.0

Q: And the “Upright Vital Capacity, Mean (SE)” value (patients with ALS [1]; 300 mg, Week 8)?
A: 80.3 (3.20) % predicted

Q: And the “Upright Vital Capacity, Mean Δ (SE)” value (patients with ALS [1]; 300 mg, Week 8)?
A: −1.4 (0.91) % predicted

Q: What about the “Upright Vital Capacity, Median Δ” value (patients with ALS [1]; 300 mg, Week 8) of the same molecule?
A: −0.8 % predicted

Q: What about the “McGill SIS, Mean (SE)” value (patients with ALS [1]; 300 mg, Week 12) of the same molecule?
A: 6.5 (0.37)

Q: What about the “McGill SIS, Mean Δ (SE) from baseline” value (patients with ALS [1]; 300 mg, Week 12) of the same molecule?
A: −0.4 (0.25)

Q: What about the “McGill SIS, Median Δ” value (patients with ALS [1]; 300 mg, Week 12) of the same molecule?
A: 0.0

Q: And the “Upright Vital Capacity, Mean (SE)” value (patients with ALS [1]; 300 mg, Week 12)?
A: 78.5 (3.34) % predicted

Q: And the “Upright Vital Capacity, Mean Δ (SE)” value (patients with ALS [1]; 300 mg, Week 12)?
A: −4.2 (1.91) % predicted

Q: And the “Upright Vital Capacity, Median Δ” value (patients with ALS [1]; 300 mg, Week 12)?
A: −4.3 % predicted

Q: And the “McGill SIS, Mean (SE)” value (patients with ALS [1]; 300 mg, Week 16)?
A: 6.4 (0.33)

Q: What about the “McGill SIS, Mean Δ (SE) from baseline” value (patients with ALS [1]; 300 mg, Week 16) of the same molecule?
A: −0.4 (0.23)

Q: What about the “McGill SIS, Median Δ” value (patients with ALS [1]; 300 mg, Week 16) of the same molecule?
A: 0.0

Q: What about the “McGill SIS, Mean (SE)” value (patients with ALS [1]; 300 mg, Week 20) of the same molecule?
A: 6.4 (0.34)

Q: And the “McGill SIS, Mean Δ (SE) from baseline” value (patients with ALS [1]; 300 mg, Week 20)?
A: −0.5 (0.30)

Q: What about the “McGill SIS, Median Δ” value (patients with ALS [1]; 300 mg, Week 20) of the same molecule?
A: 0.0

Q: What about the “Upright Vital Capacity, Mean (SE)” value (patients with ALS [1]; 300 mg, Week 20) of the same molecule?
A: 70.8 (3.77) % predicted

Q: What about the “Upright Vital Capacity, Mean Δ (SE)” value (patients with ALS [1]; 300 mg, Week 20) of the same molecule?
A: −10.6 (1.58) % predicted

Q: And the “Upright Vital Capacity, Median Δ” value (patients with ALS [1]; 300 mg, Week 20)?
A: −9.0 % predicted

Q: And the “McGill SIS, Mean (SE)” value (patients with ALS [1]; 300 mg, Week 24)?
A: 6.3 (0.36)

Q: And the “McGill SIS, Mean Δ (SE) from baseline” value (patients with ALS [1]; 300 mg, Week 24)?
A: −0.7 (0.30)

Q: What about the “McGill SIS, Median Δ” value (patients with ALS [1]; 300 mg, Week 24) of the same molecule?
A: 0.0

Q: What about the “McGill SIS, Mean (SE)” value (patients with ALS [1]; 300 mg, Week 28) of the same molecule?
A: 6.0 (0.38)

Q: And the “McGill SIS, Mean Δ (SE) from baseline” value (patients with ALS [1]; 300 mg, Week 28)?
A: −0.9 (0.31)

Q: What about the “McGill SIS, Median Δ” value (patients with ALS [1]; 300 mg, Week 28) of the same molecule?
A: −1.0

Q: And the “Upright Vital Capacity, Mean (SE)” value (patients with ALS [1]; 300 mg, Week 28)?
A: 67.3 (4.44) % predicted

Q: What about the “Upright Vital Capacity, Mean Δ (SE)” value (patients with ALS [1]; 300 mg, Week 28) of the same molecule?
A: −15.1 % predicted and −15.1 (2.63) % predicted

Q: What about the “Upright Vital Capacity, Median Δ” value (patients with ALS [1]; 300 mg, Week 28) of the same molecule?
A: −11.5 % predicted

Q: What about the “decline in ALSFRS-R scores (repeated measures mixed effect model)” value (patients with ALS [1]; 300 mg, Week 28) of the same molecule?
A: −5.66

Q: What about the “subjects who died (incl. after discontinuation)” value (patients with ALS [1]; 300 mg, double-blind period through Week 28) of the same molecule?
A: 3 (7%) N (%) and 3 N (%)

Q: And the “total number of deaths” value (patients with ALS [1]; 300 mg, first 24-week randomized active treatment period)?
A: 2

Q: What about the “did not require tracheostomy and did not die” value (patients with ALS [1]; 300 mg, through Week 28) of the same molecule?
A: 93%

Q: And the “mean change from baseline in ALSFRS-R total score” value (patients with ALS [1]; 300 mg, through Week 28)?
A: −6.2

Q: And the “slope estimate of ALSFRS-R scores (linear mixed effects model)” value (patients with ALS [1]; 300 mg, through Week 28)?
A: −1.021

Q: What about the “slope of ALSFRS-R total scores, zero imputed for first post-death visit” value (patients with ALS [1]; 300 mg, through Week 28) of the same molecule?
A: −1.19

Q: And the “slope of upright vital capacity (linear mixed effects, unadjusted)” value (patients with ALS [1]; 300 mg, through Week 28)?
A: −3.067

Q: What about the “subjects with feeding tubes placed” value (patients with ALS [1]; 300 mg, through Week 28) of the same molecule?
A: 6 (14%) N (%)

Q: What about the “drug effect on vital signs, physical examinations, ECG, hematology and urinalysis” value (healthy adult subjects; either study) of the same molecule?
A: no evidence

Q: And the “serious adverse events or adverse events that led to early discontinuation” value (healthy adult subjects; either study)?
A: No serious adverse events

Q: And the subjects reporting dizziness (healthy adult subjects; first study)?
A: 3 subjects

Q: What about the subjects reporting headache (healthy adult subjects; second study) of the same molecule?
A: 5 subjects

Q: And the safety and tolerability (healthy adult subjects; single doses up to 300 mg, multiple doses up to 150 mg twice daily for 4½ days)?
A: safe and well tolerated

Q: And the “Total AE's” value (patients with ALS [2]; 50 mg, 12 weeks)?
A: 19 (82.6%) N (%)

Q: What about the “percentage of subjects reporting AEs” value (patients with ALS [2]; 50 mg, Part 1) of the same molecule?
A: 83%

Q: What about the “subjects reporting SAEs” value (patients with ALS [2]; 50 mg, Part 1) of the same molecule?
A: 2 subjects

Q: And the “subjects with at least 1 AE possibly or probably treatment-related” value (patients with ALS [2]; 50 mg, Part 1)?
A: 17%

Q: And the “Total AE's” value (patients with ALS [2]; 150 mg, 12 weeks)?
A: 25 (96.2%) N (%)

Q: And the “Total AE's” value (patients with ALS [2]; 300 mg, 12 weeks)?
A: 23 (88.5%) N (%)

Q: What about the “percentage of subjects reporting AEs” value (patients with ALS [2]; 300 mg, Part 1) of the same molecule?
A: 89%

Q: And the “subjects discontinued due to adverse event (nausea)” value (patients with ALS [2]; 300 mg, Part 1)?
A: 1 subjects

Q: What about the “subjects reporting SAEs” value (patients with ALS [2]; 300 mg, Part 1) of the same molecule?
A: 3 subjects

Q: What about the “subjects with at least 1 AE possibly or probably treatment-related” value (patients with ALS [2]; 300 mg, Part 1) of the same molecule?
A: 27%

Q: And the “deaths during Part 1” value (patients with ALS [2]; 50, 150, 300 mg, 12 weeks)?
A: No deaths

Q: What about the AE fall (patients with ALS [2]; [3]) of the same molecule?
A: 32%

Q: What about the AE headache (patients with ALS [2]; [3]) of the same molecule?
A: 13%

Q: What about the AE muscular weakness (patients with ALS [2]; [3]) of the same molecule?
A: 24%

Q: What about the AE nausea (patients with ALS [2]; [3]) of the same molecule?
A: 11%

Q: And the “AE post lumber puncture syndrome” value (patients with ALS [2]; [3])?
A: 19%

Q: And the safety and tolerability (patients with ALS [2]; total daily doses of 50, 150, 300 mg, 12 weeks)?
A: safe and well-tolerated
